Assay results published in US9403874B2, “Peptides and use thereof” (IL YANG PHARM. CO.,LTD., priority 2012, dated 2016).

How the values were obtained:
Assay type in all cases: cell-based
Conditions in all cases: 100 ng/me of peptide; EBV-infected B cells stimulated with anti-CD150; ELISA of culture supernatant
IL-34 = test: Reduction of IL-34 secretion in activated B cells (ELISA)
Method: (§1) In order to determine the activity of the novel peptides synthesized in Example 1 for reducing the secretion of inflammatory cytokines, the activated pathogenic B cells were treated with each of the 18 types of synthesized novel peptides and the reduction in secretion of inflammatory cytokines from the B cells was monitored.
(§2) Specifically, in order to determine whether the novel peptides could weaken the pathogenic B cells which are involved in the development of disease symptoms, the in vitro B cells model which is similar to the joint infiltrative B cells of rheumatoid arthritis was used. The activated pathogenic B cell was generated by stimulating Ebstein Barr virus (EBV)-infected B cells with anti-CD150 antibodies, and the cells were treated with […] of each of the 18 types of novel peptide.
(§3) In order to confirm the effect of 18 types of novel peptides in reducing inflammatory cytokines, the secretion amount of various cytokines (IL-1A, IL-1B, IL-2, IL-4, IL-5, IL-6, IL-8, IL-10, IL-12A, IL-13, IL-17A, GM-CSF, IL-34) secreted from the activated B cells was measured. The supernatants of B cell culture were analyzed enzyme-linked immunosorbent assay (ELISA), and the difference in absorbance (450 nm-570 nm) of the color developing reagent was measured as test results. Based on the measured difference in absorbance (450 nm-570 nm) of the color developing reagent, the absorbance of cytokines secreted when treated with the 18 types of novel […] was calculated in percentage, while setting the absorbance corresponding to the cytokines secreted from the activated B cells stimulated by anti-CD150 as 100%.

IL-13 = test: Reduction of IL-13 secretion in activated B cells (ELISA)
Method: as §1, §2, §3

IL-6 = test: Reduction of IL-6 secretion in activated B cells (ELISA)
Method: as §1, §2, §3

IL-1A = test: Reduction of IL-1A secretion in activated B cells (ELISA)
Method: as §1, §2, §3

GM-CSF = test: Reduction of GM-CSF secretion in activated B cells (ELISA)
Method: as §1, §2, §3

IL-2 = test: Reduction of IL-2 secretion in activated B cells (ELISA)
Method: as §1, §2, §3

IL-1B = test: Reduction of IL-1B secretion in activated B cells (ELISA)
Method: as §1, §2, §3

IL-4 = test: Reduction of IL-4 secretion in activated B cells (ELISA)
Method: as §1, §2, §3

IL-12A = test: Reduction of IL-12A secretion in activated B cells (ELISA)
Method: as §1, §2, §3

IL-17A = test: Reduction of IL-17A secretion in activated B cells (ELISA)
Method: as §1, §2, §3

IL-5 = test: Reduction of IL-5 secretion in activated B cells (ELISA)
Method: as §1, §2, §3

IL-10 = test: Reduction of IL-10 secretion in activated B cells (ELISA)
Method: as §1, §2, §3

IL-8 = test: Reduction of IL-8 secretion in activated B cells (ELISA)
Method: as §1, §2, §3

RDGRTDG (SIS-1#2 peptide)
Inhibition rate of each cytokine compared to CD150-stimulated EBV-t B cells (%) IL-34 (IL-34): 25.4%
Inhibition rate of each cytokine compared to CD150-stimulated EBV-t B cells (%) IL-13 (IL-13): 23.8%
Inhibition rate of each cytokine compared to CD150-stimulated EBV-t B cells (%) IL-6 (IL-6): 29.8%
Inhibition rate of each cytokine compared to CD150-stimulated EBV-t B cells (%) IL-1A (IL-1A): 23.8%
Inhibition rate of each cytokine compared to CD150-stimulated EBV-t B cells (%) GM-CSF (GM-CSF): 19.0%
Inhibition rate of each cytokine compared to CD150-stimulated EBV-t B cells (%) IL-2 (IL-2): 15.1%
Inhibition rate of each cytokine compared to CD150-stimulated EBV-t B cells (%) IL-1B (IL-1B): 18.2%
Inhibition rate of each cytokine compared to CD150-stimulated EBV-t B cells (%) IL-4 (IL-4): 23.8%
Inhibition rate of each cytokine compared to CD150-stimulated EBV-t B cells (%) IL-12A (IL-12A): 30.1%
Inhibition rate of each cytokine compared to CD150-stimulated EBV-t B cells (%) IL-17A (IL-17A): 39.8%
Inhibition rate of each cytokine compared to CD150-stimulated EBV-t B cells (%) IL-5 (IL-5): 25.4%
Inhibition rate of each cytokine compared to CD150-stimulated EBV-t B cells (%) IL-10 (IL-10): 19.8%
Inhibition rate of each cytokine compared to CD150-stimulated EBV-t B cells (%) IL-8 (IL-8): 25.2%

RDGRTDGRTD (SIS-1#8 peptide)
Inhibition rate of each cytokine compared to CD150-stimulated EBV-t B cells (%) IL-34 (IL-34): 19.8%
Inhibition rate of each cytokine compared to CD150-stimulated EBV-t B cells (%) IL-13 (IL-13): 33.5%
Inhibition rate of each cytokine compared to CD150-stimulated EBV-t B cells (%) IL-6 (IL-6): 23.8%
Inhibition rate of each cytokine compared to CD150-stimulated EBV-t B cells (%) IL-1A (IL-1A): 30.2%
Inhibition rate of each cytokine compared to CD150-stimulated EBV-t B cells (%) GM-CSF (GM-CSF): 19.8%
Inhibition rate of each cytokine compared to CD150-stimulated EBV-t B cells (%) IL-2 (IL-2): 33.0%
Inhibition rate of each cytokine compared to CD150-stimulated EBV-t B cells (%) IL-1B (IL-1B): 25.9%
Inhibition rate of each cytokine compared to CD150-stimulated EBV-t B cells (%) IL-4 (IL-4): 18.9%
Inhibition rate of each cytokine compared to CD150-stimulated EBV-t B cells (%) IL-12A (IL-12A): 19.2%
Inhibition rate of each cytokine compared to CD150-stimulated EBV-t B cells (%) IL-17A (IL-17A): 30.1%
Inhibition rate of each cytokine compared to CD150-stimulated EBV-t B cells (%) IL-5 (IL-5): 12.0%
Inhibition rate of each cytokine compared to CD150-stimulated EBV-t B cells (%) IL-10 (IL-10): 10.0%
Inhibition rate of each cytokine compared to CD150-stimulated EBV-t B cells (%) IL-8 (IL-8): 29.2%

MSLPSPRDGRTDG (SIS-1#4 peptide)
Inhibition rate of each cytokine compared to CD150-stimulated EBV-t B cells (%) IL-34 (IL-34): 16.8%
Inhibition rate of each cytokine compared to CD150-stimulated EBV-t B cells (%) IL-13 (IL-13): 23.1%
Inhibition rate of each cytokine compared to CD150-stimulated EBV-t B cells (%) IL-6 (IL-6): 32.3%
Inhibition rate of each cytokine compared to CD150-stimulated EBV-t B cells (%) IL-1A (IL-1A): 18.1%
Inhibition rate of each cytokine compared to CD150-stimulated EBV-t B cells (%) GM-CSF (GM-CSF): 18.5%
Inhibition rate of each cytokine compared to CD150-stimulated EBV-t B cells (%) IL-2 (IL-2): 18.8%
Inhibition rate of each cytokine compared to CD150-stimulated EBV-t B cells (%) IL-1B (IL-1B): 16.5%
Inhibition rate of each cytokine compared to CD150-stimulated EBV-t B cells (%) IL-4 (IL-4): 20.8%
Inhibition rate of each cytokine compared to CD150-stimulated EBV-t B cells (%) IL-12A (IL-12A): 33.9%
Inhibition rate of each cytokine compared to CD150-stimulated EBV-t B cells (%) IL-17A (IL-17A): 43.0%
Inhibition rate of each cytokine compared to CD150-stimulated EBV-t B cells (%) IL-5 (IL-5): 20.4%
Inhibition rate of each cytokine compared to CD150-stimulated EBV-t B cells (%) IL-10 (IL-10): 18.0%
Inhibition rate of each cytokine compared to CD150-stimulated EBV-t B cells (%) IL-8 (IL-8): 32.0%

MSLPSP (SIS-1#1 peptide)
Inhibition rate of each cytokine compared to CD150-stimulated EBV-t B cells (%) IL-34 (IL-34): 18.8%
Inhibition rate of each cytokine compared to CD150-stimulated EBV-t B cells (%) IL-13 (IL-13): 15.0%
Inhibition rate of each cytokine compared to CD150-stimulated EBV-t B cells (%) IL-6 (IL-6): 19.2%
Inhibition rate of each cytokine compared to CD150-stimulated EBV-t B cells (%) IL-1A (IL-1A): 7.8%
Inhibition rate of each cytokine compared to CD150-stimulated EBV-t B cells (%) GM-CSF (GM-CSF): 18.0%
Inhibition rate of each cytokine compared to CD150-stimulated EBV-t B cells (%) IL-2 (IL-2): 13.5%
Inhibition rate of each cytokine compared to CD150-stimulated EBV-t B cells (%) IL-1B (IL-1B): 9.3%
Inhibition rate of each cytokine compared to CD150-stimulated EBV-t B cells (%) IL-4 (IL-4): 19.8%
Inhibition rate of each cytokine compared to CD150-stimulated EBV-t B cells (%) IL-12A (IL-12A): 19.8%
Inhibition rate of each cytokine compared to CD150-stimulated EBV-t B cells (%) IL-17A (IL-17A): 24.8%
Inhibition rate of each cytokine compared to CD150-stimulated EBV-t B cells (%) IL-5 (IL-5): 18.5%
Inhibition rate of each cytokine compared to CD150-stimulated EBV-t B cells (%) IL-10 (IL-10): 7.2%
Inhibition rate of each cytokine compared to CD150-stimulated EBV-t B cells (%) IL-8 (IL-8): 17.5%

RDGR (SIS-1#15 peptide)
Inhibition rate of each cytokine compared to CD150-stimulated EBV-t B cells (%) IL-34 (IL-34): 6.0%
Inhibition rate of each cytokine compared to CD150-stimulated EBV-t B cells (%) IL-13 (IL-13): 7.2%
Inhibition rate of each cytokine compared to CD150-stimulated EBV-t B cells (%) IL-6 (IL-6): 4.8%
Inhibition rate of each cytokine compared to CD150-stimulated EBV-t B cells (%) IL-1A (IL-1A): 11.5%
Inhibition rate of each cytokine compared to CD150-stimulated EBV-t B cells (%) GM-CSF (GM-CSF): 1.5%
Inhibition rate of each cytokine compared to CD150-stimulated EBV-t B cells (%) IL-2 (IL-2): 12.7%
Inhibition rate of each cytokine compared to CD150-stimulated EBV-t B cells (%) IL-1B (IL-1B): 5.7%
Inhibition rate of each cytokine compared to CD150-stimulated EBV-t B cells (%) IL-4 (IL-4): 6.3%
Inhibition rate of each cytokine compared to CD150-stimulated EBV-t B cells (%) IL-12A (IL-12A): 10.8%
Inhibition rate of each cytokine compared to CD150-stimulated EBV-t B cells (%) IL-17A (IL-17A): 10.1%
Inhibition rate of each cytokine compared to CD150-stimulated EBV-t B cells (%) IL-5 (IL-5): 6.4%
Inhibition rate of each cytokine compared to CD150-stimulated EBV-t B cells (%) IL-10 (IL-10): 7.2%
Inhibition rate of each cytokine compared to CD150-stimulated EBV-t B cells (%) IL-8 (IL-8): 15.0%

GRTDG (SIS-1#10 peptide)
Inhibition rate of each cytokine compared to CD150-stimulated EBV-t B cells (%) IL-34 (IL-34): 27.0%
Inhibition rate of each cytokine compared to CD150-stimulated EBV-t B cells (%) IL-13 (IL-13): 25.7%
Inhibition rate of each cytokine compared to CD150-stimulated EBV-t B cells (%) IL-6 (IL-6): 25.0%
Inhibition rate of each cytokine compared to CD150-stimulated EBV-t B cells (%) IL-1A (IL-1A): 7.8%
Inhibition rate of each cytokine compared to CD150-stimulated EBV-t B cells (%) GM-CSF (GM-CSF): 13.0%
Inhibition rate of each cytokine compared to CD150-stimulated EBV-t B cells (%) IL-2 (IL-2): 11.4%
Inhibition rate of each cytokine compared to CD150-stimulated EBV-t B cells (%) IL-1B (IL-1B): 4.2%
Inhibition rate of each cytokine compared to CD150-stimulated EBV-t B cells (%) IL-4 (IL-4): 19.5%
Inhibition rate of each cytokine compared to CD150-stimulated EBV-t B cells (%) IL-12A (IL-12A): 29.8%
Inhibition rate of each cytokine compared to CD150-stimulated EBV-t B cells (%) IL-17A (IL-17A): 25.0%
Inhibition rate of each cytokine compared to CD150-stimulated EBV-t B cells (%) IL-5 (IL-5): 24.2%
Inhibition rate of each cytokine compared to CD150-stimulated EBV-t B cells (%) IL-10 (IL-10): 7.5%
Inhibition rate of each cytokine compared to CD150-stimulated EBV-t B cells (%) IL-8 (IL-8): 17.9%

RTDG (SIS-1#7 peptide)
Inhibition rate of each cytokine compared to CD150-stimulated EBV-t B cells (%) IL-34 (IL-34): 2.9%
Inhibition rate of each cytokine compared to CD150-stimulated EBV-t B cells (%) IL-13 (IL-13): 3.6%
Inhibition rate of each cytokine compared to CD150-stimulated EBV-t B cells (%) IL-6 (IL-6): 11.8%
Inhibition rate of each cytokine compared to CD150-stimulated EBV-t B cells (%) IL-1A (IL-1A): 6.3%
Inhibition rate of each cytokine compared to CD150-stimulated EBV-t B cells (%) GM-CSF (GM-CSF): 4.5%
Inhibition rate of each cytokine compared to CD150-stimulated EBV-t B cells (%) IL-2 (IL-2): 7.4%
Inhibition rate of each cytokine compared to CD150-stimulated EBV-t B cells (%) IL-1B (IL-1B): 5.3%
Inhibition rate of each cytokine compared to CD150-stimulated EBV-t B cells (%) IL-4 (IL-4): 10.2%
Inhibition rate of each cytokine compared to CD150-stimulated EBV-t B cells (%) IL-12A (IL-12A): 11.4%
Inhibition rate of each cytokine compared to CD150-stimulated EBV-t B cells (%) IL-17A (IL-17A): 9.5%
Inhibition rate of each cytokine compared to CD150-stimulated EBV-t B cells (%) IL-5 (IL-5): 3.5%
Inhibition rate of each cytokine compared to CD150-stimulated EBV-t B cells (%) IL-10 (IL-10): 5.3%
Inhibition rate of each cytokine compared to CD150-stimulated EBV-t B cells (%) IL-8 (IL-8): 3.2%
